Laboratory results as given in ChEMBL document CHEMBL1134931, “Aminoalkoxybiphenylnitriles as histamine-3 receptor ligands” (Bioorg Med Chem Lett, 2002).
pKi: −log10 of the molar value.

Experiments:
Histamine H3 receptor [1] = molecular target: T1, Histamine H3 receptor (Homo sapiens, UniProt Q9Y5N1); assay: Binding affinity at human cloned Histamine H3 receptor
Histamine H1 receptor [2] = molecular target: T2, Histamine H1 receptor (Homo sapiens, UniProt P35367); assay: Binding affinity of human cortical histamine H1 receptor
Histamine H3 receptor [3] = molecular target: T3, Histamine H3 receptor (Rattus norvegicus, UniProt Q9QYN8); assay: Binding affinity at rat cortical Histamine H3 receptor
Histamine H2 receptor [4] = molecular target: T4, Histamine H2 receptor (Homo sapiens, UniProt P25021); assay: Binding affinity to the human cortical histamine H2 receptor
Histamine H1 receptor [5] = molecular target: T2, Histamine H1 receptor; assay: Binding affinity at human cortical Histamine 1 receptor
Histamine H2 receptor [6] = molecular target: T4, Histamine H2 receptor; assay: Binding affinity at human cortical Histamine 2 receptor
Histamine H3 receptor [7] = molecular target: T1, Histamine H3 receptor; assay: Binding affinity at human cloned Histamine 3 receptor
Histamine H3 receptor [8] = molecular target: T3, Histamine H3 receptor; assay: Binding affinity at rat cortical Histamine 3 receptor

T1 sequence (Q9Y5N1 whole entry): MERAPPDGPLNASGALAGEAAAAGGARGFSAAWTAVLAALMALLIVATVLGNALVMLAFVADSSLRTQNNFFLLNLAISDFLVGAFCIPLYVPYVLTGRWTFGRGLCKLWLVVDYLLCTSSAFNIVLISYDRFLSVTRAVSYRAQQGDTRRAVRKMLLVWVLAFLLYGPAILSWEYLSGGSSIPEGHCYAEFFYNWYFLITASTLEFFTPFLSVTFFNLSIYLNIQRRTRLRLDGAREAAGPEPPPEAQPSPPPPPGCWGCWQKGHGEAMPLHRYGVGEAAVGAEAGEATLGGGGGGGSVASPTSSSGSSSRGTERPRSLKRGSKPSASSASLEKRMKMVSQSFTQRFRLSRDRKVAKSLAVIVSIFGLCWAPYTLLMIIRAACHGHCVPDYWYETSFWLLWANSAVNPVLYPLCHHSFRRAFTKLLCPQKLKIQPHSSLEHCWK
T3 sequence (Q9QYN8 whole entry): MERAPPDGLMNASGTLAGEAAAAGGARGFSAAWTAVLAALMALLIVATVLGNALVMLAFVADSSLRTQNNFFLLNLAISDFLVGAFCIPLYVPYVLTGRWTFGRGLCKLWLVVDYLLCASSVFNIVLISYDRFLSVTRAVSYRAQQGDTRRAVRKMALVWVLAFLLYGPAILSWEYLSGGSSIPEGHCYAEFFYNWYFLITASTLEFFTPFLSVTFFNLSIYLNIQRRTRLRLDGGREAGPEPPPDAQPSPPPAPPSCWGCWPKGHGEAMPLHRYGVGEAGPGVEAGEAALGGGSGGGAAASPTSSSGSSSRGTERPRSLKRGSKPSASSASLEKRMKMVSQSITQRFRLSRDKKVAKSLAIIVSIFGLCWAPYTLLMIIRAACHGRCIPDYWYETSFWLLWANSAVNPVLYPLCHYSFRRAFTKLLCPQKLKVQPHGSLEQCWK
T2 sequence (P35367 whole entry): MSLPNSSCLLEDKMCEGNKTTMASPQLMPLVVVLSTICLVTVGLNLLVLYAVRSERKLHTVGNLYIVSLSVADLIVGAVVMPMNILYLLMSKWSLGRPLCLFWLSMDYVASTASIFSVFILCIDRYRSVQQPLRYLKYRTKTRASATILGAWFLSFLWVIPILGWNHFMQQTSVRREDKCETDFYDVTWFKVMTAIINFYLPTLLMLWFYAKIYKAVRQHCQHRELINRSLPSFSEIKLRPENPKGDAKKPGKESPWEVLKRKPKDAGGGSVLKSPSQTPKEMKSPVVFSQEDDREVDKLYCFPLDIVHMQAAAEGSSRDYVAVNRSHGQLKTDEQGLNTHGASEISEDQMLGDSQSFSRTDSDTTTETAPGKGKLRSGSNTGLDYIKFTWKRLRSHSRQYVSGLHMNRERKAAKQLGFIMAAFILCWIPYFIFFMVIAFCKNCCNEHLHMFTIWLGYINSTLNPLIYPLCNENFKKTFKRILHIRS
T4 sequence (P25021 whole entry): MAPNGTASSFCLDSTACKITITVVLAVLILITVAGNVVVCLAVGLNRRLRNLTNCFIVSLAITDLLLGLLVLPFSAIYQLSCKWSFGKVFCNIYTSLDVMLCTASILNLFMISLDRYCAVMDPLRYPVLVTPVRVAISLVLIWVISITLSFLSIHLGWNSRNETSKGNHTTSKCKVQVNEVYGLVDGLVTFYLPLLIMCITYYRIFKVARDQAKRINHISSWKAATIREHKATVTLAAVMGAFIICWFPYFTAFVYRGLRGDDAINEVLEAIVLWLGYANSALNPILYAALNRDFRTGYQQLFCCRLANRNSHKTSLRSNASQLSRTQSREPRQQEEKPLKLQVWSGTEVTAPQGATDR

Row | pKi (Histamine H3 receptor [1]) | pKi (Histamine H1 receptor [2]) | pKi (Histamine H3 receptor [3]) | pKi (Histamine H2 receptor [4]) | pKi (Histamine H1 receptor [5]) | pKi (Histamine H2 receptor [6]) | pKi (Histamine H3 receptor [7]) | pKi (Histamine H3 receptor [8]) | SMILES
1 | 7.44 | 5.49 | 7.60 | 4.42 |  |  |  |  | N#Cc1ccc(-c2ccc(OCCCN3CCOCC3)cc2)cc1
2 | 8.56 | 5.72 | 7.87 | 5.00 |  |  |  |  | CN(C)[C@@H]1CCN(CCCOc2ccc(-c3ccc(C#N)cc3)cc2)C1
3 | 7.82 | 5.54 | 7.18 | 4.91 |  |  |  |  | N#Cc1ccc(-c2ccc(OCCCN3CC4CNCC4C3)cc2)cc1 (stereo not given)
4 | 9.17 | 6.25 | 8.19 | 5.04 |  |  |  |  | C[C@@H]1CC[C@@H](C)N1CCCOc1ccc(-c2ccc(C#N)cc2)cc1
5 |  |  |  |  | 6.42 | 4.62 |  |  | CCOC(=O)N1CCN(CCCOc2ccc(-c3cccc(C#N)c3)cc2)CC1
6 |  |  |  |  | 5.25 | 4.72 | 7.71 | 6.90 | N#Cc1ccc(-c2ccc(OCCCN3CC[C@H](O)C3)cc2)cc1
7 | 8.77 | 6.56 | 7.58 | 4.93 |  |  |  |  | CC1CCCN(CCCOc2ccc(-c3ccc(C#N)cc3)cc2)C1 (stereo not given)
8 |  |  |  |  | 6.45 | 5.25 |  | 6.72 | CCOC(=O)N1CCN(CCCOc2ccc(-c3ccc(Cl)cc3)cc2)CC1
9 |  | 7.56 | 6.99 | 5.40 |  |  |  |  | CCOC(=O)N1CCN(CCCOc2ccc(-c3ccc(C#N)cc3C)cc2)CC1
10 |  | 6.74 | 6.95 | 5.78 |  |  |  |  | CCOC(=O)N1CCN(CCCOc2ccc(-c3ccc(Br)cc3)cc2)CC1
11 |  | 6.45 |  | 4.00 |  |  |  |  | CCOC(=O)N1CCN(CCCOc2ccc(-c3ccc(OC)cc3)cc2)CC1
12 | 8.39 | 5.41 | 7.81 | 4.82 |  |  |  |  | C[C@@]1(O)CCN(CCCOc2ccc(-c3ccc(C#N)cc3)cc2)C1
13 |  |  |  |  | 6.79 | 5.12 |  | 6.21 | CCOC(=O)N1CCN(CCCOc2ccc(-c3ccccc3[N+](=O)[O-])cc2)CC1
14 |  |  |  |  | 5.30 | 4.17 | 8.14 | 7.38 | N#Cc1ccc(-c2ccc(OCCCN3CCCC3)cc2)cc1
15 | 8.15 | 5.46 | 7.64 | 4.73 |  |  |  |  | CC1CCCCN1CCCOc1ccc(-c2ccc(C#N)cc2)cc1 (stereo not given)
16 | 8.08 | 5.41 | 7.87 | 5.11 |  |  |  |  | N#Cc1ccc(-c2ccc(OCCCN3CCCNCC3)cc2)cc1
17 |  | 6.36 | 6.62 | 5.44 |  |  |  |  | CCOC(=O)N1CCN(CCCOc2ccc(-c3ccc(OC(F)(F)F)cc3)cc2)CC1

Row | pKi (Histamine H3 receptor [1]) | pKi (Histamine H1 receptor [2]) | pKi (Histamine H3 receptor [3]) | pKi (Histamine H2 receptor [4]) | pKi (Histamine H1 receptor [5]) | pKi (Histamine H2 receptor [6]) | pKi (Histamine H3 receptor [7]) | pKi (Histamine H3 receptor [8]) | SMILES
18 |  | 5.43 |  | 4.24 |  |  |  |  | CCOC(=O)N1CCN(CCCOc2ccc(-c3ccncc3)cc2)CC1
19 | 8.07 | 5.43 |  | 5.00 |  |  |  |  | CN[C@@H]1CCN(CCCOc2ccc(-c3ccc(C#N)cc3)cc2)C1
20 | 7.52 | 5.11 | 7.09 | 4.89 |  |  |  |  | N#Cc1ccc(-c2ccc(OCCCN3CCCC(O)C3)cc2)cc1 (stereo not given)
21 | 6.91 | 6.24 | 7.50 | 5.00 |  |  |  |  | N#Cc1ccc(-c2ccc(OCCCN3CCC(O)CC3)cc2)cc1
22 | 7.86 | 6.37 | 8.01 | 5.04 |  |  |  |  | CC1CCN(CCCOc2ccc(-c3ccc(C#N)cc3)cc2)CC1
23 |  |  |  |  | 5.35 | 4.77 | 8.08 |  | N#Cc1ccc(-c2ccc(OCCCN3CC[C@@H](O)C3)cc2)cc1
24 |  | 6.12 | 6.68 | 4.01 |  |  |  |  | CCOC(=O)N1CCN(CCCOc2ccc(-c3ccsc3)cc2)CC1
25 | 6.93 | 5.05 | 6.23 | 4.64 |  |  |  |  | N#Cc1ccc(-c2ccc(OCCCN3CCNCC3)cc2)cc1
26 |  |  |  |  | 7.09 | 5.08 |  | 7.01 | CCOC(=O)N1CCN(CCCOc2ccc(-c3ccc([N+](=O)[O-])cc3)cc2)CC1
27 |  |  |  |  | 5.45 | 4.47 | 6.70 | 6.89 | N#Cc1ccc(-c2ccc(OCCCN3CCC(N)CC3)cc2)cc1
28 |  | 5.83 | 6.06 | 4.16 |  |  |  |  | CCOC(=O)N1CCN(CCCOc2ccc(-c3c[nH]cn3)cc2)CC1
29 |  | 6.35 | 6.64 | 4.48 |  |  |  |  | CCOC(=O)N1CCN(CCCOc2ccc(-c3cccs3)cc2)CC1
30 | 6.00 | 6.30 | 7.25 | 4.89 |  |  |  |  | CCOC(=O)N1CCN(CCCOc2ccc(-c3cc[nH]c3)cc2)CC1
31 |  |  |  |  | 4.86 | 5.13 | 8.21 | 7.20 | N#Cc1ccc(-c2ccc(OCCCN3CC[C@@H](N)C3)cc2)cc1
32 | 6.00 | 6.80 | 7.55 | 4.54 |  |  |  |  | CCOC(=O)N1CCN(CCCOc2ccc(-c3ccc(C#N)cc3)cc2)CC1
33 | 8.67 | 5.40 | 7.79 | 4.62 |  |  |  |  | CC1CCCC(C)N1CCCOc1ccc(-c2ccc(C#N)cc2)cc1 (stereo not given)
